ChEMBL document CHEMBL5465560, “Selectivity Literature for EUbOPEN Chemogenomic Library” (2024)

Experiments:
[1] = target: Dual specificity testis-specific protein kinase 1 (Homo sapiens) (UniProt Q15569); settings: at 10 µM
[2] = target: T1, Serine/threonine-protein kinase D1 (Homo sapiens) (UniProt Q15139); test: Selectivity interaction (Upstate Kinase Profiler service (Millipore)) EUB0000056c PRKD1; settings: at 1 µM
T1 sequence (whole entry): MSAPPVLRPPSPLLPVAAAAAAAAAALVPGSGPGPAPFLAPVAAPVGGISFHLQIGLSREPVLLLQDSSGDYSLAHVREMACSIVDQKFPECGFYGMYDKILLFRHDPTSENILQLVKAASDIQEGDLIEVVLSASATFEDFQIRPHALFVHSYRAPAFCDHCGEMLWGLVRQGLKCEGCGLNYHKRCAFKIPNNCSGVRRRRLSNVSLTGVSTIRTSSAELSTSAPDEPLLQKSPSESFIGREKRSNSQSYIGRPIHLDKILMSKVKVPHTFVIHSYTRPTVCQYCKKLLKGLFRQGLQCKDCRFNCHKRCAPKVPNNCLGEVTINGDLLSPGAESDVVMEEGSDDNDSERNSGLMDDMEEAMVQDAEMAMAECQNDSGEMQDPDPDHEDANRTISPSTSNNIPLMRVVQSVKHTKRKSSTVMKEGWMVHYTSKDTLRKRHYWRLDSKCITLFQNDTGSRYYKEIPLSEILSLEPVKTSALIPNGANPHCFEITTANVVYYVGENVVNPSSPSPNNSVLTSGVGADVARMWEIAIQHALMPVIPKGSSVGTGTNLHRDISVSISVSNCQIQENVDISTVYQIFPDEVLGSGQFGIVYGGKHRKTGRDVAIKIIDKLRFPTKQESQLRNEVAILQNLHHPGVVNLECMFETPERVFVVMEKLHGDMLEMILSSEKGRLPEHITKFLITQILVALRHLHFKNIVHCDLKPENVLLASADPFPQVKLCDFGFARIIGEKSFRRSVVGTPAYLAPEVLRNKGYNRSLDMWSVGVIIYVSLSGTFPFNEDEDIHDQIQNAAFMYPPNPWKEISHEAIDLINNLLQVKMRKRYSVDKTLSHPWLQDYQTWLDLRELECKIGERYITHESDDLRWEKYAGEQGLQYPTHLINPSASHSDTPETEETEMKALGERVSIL

[3] = system: Leucine-rich repeat serine/threonine-protein kinase 2 (Homo sapiens), Q5S007 [I2020T]; test: (§1) Selectivity interaction (ProQinase) EUB0000171b LRRK2
[4] = system: Leucine-rich repeat serine/threonine-protein kinase 2 (Homo sapiens), Q5S007 [G2019S]; test: as §1
[5] = target: Leucine-rich repeat serine/threonine-protein kinase 2 (Homo sapiens, UniProt Q5S007); test: as §1
[6] = system: Leucine-rich repeat serine/threonine-protein kinase 2 (Homo sapiens), Q5S007 [R1441C]; test: as §1
[7] = target: T2, Non-receptor tyrosine-protein kinase TNK1 (Homo sapiens) (UniProt Q13470); test: Selectivity interaction (ProQinase) EUB0000171b TNK1
T2 sequence (whole entry): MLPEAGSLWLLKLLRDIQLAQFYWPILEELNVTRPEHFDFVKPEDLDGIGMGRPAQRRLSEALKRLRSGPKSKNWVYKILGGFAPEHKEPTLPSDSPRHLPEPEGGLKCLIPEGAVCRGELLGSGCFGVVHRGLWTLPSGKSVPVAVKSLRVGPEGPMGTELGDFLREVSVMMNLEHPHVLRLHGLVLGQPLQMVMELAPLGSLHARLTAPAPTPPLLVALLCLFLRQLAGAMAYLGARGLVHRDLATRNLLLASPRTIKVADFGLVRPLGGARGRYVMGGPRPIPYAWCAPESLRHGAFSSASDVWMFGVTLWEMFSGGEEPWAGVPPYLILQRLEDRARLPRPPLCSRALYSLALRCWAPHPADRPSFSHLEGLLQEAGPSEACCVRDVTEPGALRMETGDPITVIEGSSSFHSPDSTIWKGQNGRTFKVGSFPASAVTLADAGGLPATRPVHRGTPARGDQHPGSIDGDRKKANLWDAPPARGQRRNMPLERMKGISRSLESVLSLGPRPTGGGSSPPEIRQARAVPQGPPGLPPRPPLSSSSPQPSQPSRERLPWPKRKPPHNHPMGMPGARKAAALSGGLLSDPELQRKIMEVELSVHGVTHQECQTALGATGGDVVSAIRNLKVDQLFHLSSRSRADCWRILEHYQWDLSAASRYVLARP

[8] = target: T3, Mitogen-activated protein kinase 13 (Homo sapiens) (UniProt O15264); test: Selectivity interaction (Kinase panel (DSF assay)) EUB0001559a MAPK13
T3 sequence (whole entry): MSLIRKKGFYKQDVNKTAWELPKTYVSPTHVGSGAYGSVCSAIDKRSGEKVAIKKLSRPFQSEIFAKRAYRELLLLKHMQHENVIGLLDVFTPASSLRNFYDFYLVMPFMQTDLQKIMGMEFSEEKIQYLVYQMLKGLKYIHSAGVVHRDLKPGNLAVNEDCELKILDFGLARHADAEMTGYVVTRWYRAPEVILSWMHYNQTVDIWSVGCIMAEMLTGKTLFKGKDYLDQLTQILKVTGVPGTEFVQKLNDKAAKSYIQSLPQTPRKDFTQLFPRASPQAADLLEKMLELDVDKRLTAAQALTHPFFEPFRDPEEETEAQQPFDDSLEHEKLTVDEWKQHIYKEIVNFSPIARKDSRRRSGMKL

[9] = target: Mitogen-activated protein kinase kinase kinase 11 (Homo sapiens) (UniProt Q16584); test: Selectivity interaction (ActivX KiNativ screen (kinase selectivity in THP-1 cell lysates)) EUB0000639a MAP3K11; format: subcellular; settings: lysate
[10] = target: CDK4/Cyclin D3 (Homo sapiens) (UniProt P11802+P30281); test: (§2) Selectivity interaction (KinomeScan (DiscoverX)) EUB0000595a CDK4; format: protein-complex assay; settings: at 10 µM
[11] = target: Cyclin-dependent kinase 4/cyclin D1 (Homo sapiens) (UniProt P11802+P24385); test: as §2; format: protein-complex assay; settings: at 10 µM

Chain of Mitogen-activated protein kinase kinase kinase 11 (Homo sapiens) (Q16584 whole entry, looked up): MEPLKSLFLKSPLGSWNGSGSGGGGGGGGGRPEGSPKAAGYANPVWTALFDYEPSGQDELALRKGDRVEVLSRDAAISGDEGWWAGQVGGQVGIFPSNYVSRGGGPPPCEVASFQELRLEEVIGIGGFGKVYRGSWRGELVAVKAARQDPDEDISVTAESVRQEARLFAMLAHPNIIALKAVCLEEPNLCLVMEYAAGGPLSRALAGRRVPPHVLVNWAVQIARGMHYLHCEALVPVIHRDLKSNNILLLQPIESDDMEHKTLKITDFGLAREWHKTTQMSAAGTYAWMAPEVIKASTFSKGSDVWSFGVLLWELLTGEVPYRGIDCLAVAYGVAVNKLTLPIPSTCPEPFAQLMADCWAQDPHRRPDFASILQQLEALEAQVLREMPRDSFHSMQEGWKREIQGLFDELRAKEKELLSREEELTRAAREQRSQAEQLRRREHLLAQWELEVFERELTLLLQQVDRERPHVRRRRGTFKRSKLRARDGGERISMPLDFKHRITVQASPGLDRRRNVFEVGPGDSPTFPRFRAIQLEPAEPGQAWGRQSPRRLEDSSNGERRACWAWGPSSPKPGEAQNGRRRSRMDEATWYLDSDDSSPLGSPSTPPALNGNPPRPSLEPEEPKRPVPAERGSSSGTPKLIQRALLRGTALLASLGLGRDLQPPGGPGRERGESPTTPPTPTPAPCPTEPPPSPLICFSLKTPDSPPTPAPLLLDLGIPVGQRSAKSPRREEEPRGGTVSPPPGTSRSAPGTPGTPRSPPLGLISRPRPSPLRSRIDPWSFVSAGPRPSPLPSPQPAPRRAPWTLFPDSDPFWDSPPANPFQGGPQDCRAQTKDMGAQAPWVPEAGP
Chain of Leucine-rich repeat serine/threonine-protein kinase 2 (Homo sapiens), Q5S007 [I2020T] (Q5S007 whole entry I2020T): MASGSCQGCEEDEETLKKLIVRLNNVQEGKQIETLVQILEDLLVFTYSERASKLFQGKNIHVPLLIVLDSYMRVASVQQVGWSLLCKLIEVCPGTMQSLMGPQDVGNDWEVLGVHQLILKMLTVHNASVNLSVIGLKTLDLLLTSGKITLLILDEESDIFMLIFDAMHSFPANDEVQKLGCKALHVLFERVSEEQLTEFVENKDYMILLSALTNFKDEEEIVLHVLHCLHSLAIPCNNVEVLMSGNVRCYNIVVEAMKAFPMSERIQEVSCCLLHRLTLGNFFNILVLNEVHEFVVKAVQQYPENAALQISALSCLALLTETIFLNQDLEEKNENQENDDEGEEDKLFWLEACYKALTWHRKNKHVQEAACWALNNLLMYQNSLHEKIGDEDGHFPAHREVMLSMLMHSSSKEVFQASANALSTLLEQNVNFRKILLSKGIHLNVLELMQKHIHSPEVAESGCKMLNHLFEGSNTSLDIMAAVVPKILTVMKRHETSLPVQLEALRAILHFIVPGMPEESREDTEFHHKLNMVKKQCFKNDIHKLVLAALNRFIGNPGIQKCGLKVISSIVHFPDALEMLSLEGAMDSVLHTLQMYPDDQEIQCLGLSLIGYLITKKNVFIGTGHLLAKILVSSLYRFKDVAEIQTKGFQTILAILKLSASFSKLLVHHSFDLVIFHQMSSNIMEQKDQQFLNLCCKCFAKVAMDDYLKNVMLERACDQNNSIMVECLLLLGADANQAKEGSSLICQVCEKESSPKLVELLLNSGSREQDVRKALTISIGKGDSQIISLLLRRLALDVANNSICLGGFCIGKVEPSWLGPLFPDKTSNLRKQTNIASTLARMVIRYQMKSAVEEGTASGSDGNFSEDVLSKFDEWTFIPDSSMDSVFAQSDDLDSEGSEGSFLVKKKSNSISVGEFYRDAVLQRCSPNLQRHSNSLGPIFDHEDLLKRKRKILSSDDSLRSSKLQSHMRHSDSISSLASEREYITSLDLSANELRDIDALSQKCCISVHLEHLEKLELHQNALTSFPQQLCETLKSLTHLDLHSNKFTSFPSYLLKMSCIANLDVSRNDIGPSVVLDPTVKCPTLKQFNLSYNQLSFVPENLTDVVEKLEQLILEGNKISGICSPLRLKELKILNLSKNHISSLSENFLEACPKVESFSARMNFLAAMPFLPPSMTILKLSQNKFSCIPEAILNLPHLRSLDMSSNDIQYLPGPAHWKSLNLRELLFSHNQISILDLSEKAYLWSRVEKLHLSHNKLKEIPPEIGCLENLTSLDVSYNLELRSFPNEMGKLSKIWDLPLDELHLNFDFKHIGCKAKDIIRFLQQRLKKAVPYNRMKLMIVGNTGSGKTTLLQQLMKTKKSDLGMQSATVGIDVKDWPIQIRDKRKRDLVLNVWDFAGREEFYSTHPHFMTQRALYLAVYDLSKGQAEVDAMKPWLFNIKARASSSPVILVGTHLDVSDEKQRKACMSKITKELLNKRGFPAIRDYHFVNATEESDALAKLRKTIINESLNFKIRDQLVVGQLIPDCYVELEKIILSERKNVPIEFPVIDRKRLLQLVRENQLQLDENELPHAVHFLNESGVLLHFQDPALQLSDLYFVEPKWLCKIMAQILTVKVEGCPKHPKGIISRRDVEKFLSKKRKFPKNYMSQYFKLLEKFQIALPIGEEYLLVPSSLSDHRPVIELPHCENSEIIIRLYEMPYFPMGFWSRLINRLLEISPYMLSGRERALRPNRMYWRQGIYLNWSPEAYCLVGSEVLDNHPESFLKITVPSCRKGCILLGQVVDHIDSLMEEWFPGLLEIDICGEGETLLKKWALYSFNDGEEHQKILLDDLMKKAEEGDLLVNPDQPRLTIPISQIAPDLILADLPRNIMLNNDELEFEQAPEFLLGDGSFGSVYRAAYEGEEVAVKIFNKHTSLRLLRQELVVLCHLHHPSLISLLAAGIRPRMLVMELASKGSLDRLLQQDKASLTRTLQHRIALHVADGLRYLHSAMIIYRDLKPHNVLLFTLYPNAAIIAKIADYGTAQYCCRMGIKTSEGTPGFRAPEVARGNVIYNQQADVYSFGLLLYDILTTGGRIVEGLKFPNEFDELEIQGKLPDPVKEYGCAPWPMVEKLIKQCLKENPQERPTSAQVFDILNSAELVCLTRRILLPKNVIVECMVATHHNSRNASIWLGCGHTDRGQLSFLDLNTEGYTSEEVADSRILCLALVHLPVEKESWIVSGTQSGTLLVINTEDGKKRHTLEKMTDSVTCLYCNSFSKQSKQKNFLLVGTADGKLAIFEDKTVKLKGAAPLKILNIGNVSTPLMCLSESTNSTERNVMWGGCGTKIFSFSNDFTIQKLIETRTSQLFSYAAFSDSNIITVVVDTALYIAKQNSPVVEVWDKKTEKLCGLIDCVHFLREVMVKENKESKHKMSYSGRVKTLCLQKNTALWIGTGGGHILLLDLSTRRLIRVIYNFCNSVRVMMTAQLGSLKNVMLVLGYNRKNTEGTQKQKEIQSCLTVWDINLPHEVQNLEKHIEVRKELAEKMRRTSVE
Chain of Leucine-rich repeat serine/threonine-protein kinase 2 (Q5S007 whole entry): as the sequence (Q5S007 whole entry I2020T) above, with T2020I counted along it
Chain of Leucine-rich repeat serine/threonine-protein kinase 2 (Homo sapiens), Q5S007 [G2019S] (Q5S007 whole entry G2019S): as the sequence (Q5S007 whole entry I2020T) above, with G2019S, T2020I counted along it
Chain of Leucine-rich repeat serine/threonine-protein kinase 2 (Homo sapiens), Q5S007 [R1441C] (Q5S007 whole entry R1441C): as the sequence (Q5S007 whole entry I2020T) above, with R1441C, T2020I counted along it
Chain of Dual specificity testis-specific protein kinase 1 (Homo sapiens) (Q15569 whole entry, looked up): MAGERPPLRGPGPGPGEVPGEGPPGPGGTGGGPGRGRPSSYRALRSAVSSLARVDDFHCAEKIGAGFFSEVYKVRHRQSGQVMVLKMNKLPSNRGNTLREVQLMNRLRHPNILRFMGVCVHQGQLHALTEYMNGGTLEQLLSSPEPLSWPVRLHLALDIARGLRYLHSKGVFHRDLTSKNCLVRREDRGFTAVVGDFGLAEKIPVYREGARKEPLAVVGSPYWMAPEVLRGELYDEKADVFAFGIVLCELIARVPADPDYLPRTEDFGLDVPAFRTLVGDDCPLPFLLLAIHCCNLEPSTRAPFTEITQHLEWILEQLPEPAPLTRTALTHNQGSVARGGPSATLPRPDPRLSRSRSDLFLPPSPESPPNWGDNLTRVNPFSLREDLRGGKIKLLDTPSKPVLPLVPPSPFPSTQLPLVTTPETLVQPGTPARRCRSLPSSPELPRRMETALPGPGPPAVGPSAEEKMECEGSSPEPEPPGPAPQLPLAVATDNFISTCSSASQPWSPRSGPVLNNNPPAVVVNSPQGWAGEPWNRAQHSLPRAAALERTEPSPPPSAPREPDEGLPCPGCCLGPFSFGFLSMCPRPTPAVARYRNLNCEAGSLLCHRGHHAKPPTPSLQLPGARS

In the case of `CCN(CC)CCCCNc1ncc2cc(-c3cc(OC)cc(OC)c3)c(NC(=O)NC(C)(C)C)nc2n1`, the % of control [1] is reported as 100%.

For `Cc1ccc(-c2ccc3c(ccc4sc5c(c43)NC[C@@H](C)NC5=O)n2)cn1`, the % of inhibition [2] was 19%.

`C=CC(=O)Nc1cccc(C(=O)Nc2ccc(Nc3cc(-c4[nH]c(SC)nc4C)ccn3)cc2)c1` showed a % of control ([3]; at 1 µM) of 71%, a % of control ([3]; at 5 µM) of 49% and a % of control ([4]; at 1 µM) of 72%. It also gave a % of control ([4]; at 5 µM) of 52%, a % of control ([5]; at 1 µM) of 77% and a % of control ([5]; at 5 µM) of 47%. For the same molecule, the % of control ([6]; at 1 µM) was 80%, the % of control ([6]; at 5 µM) was 51% and the % of control ([7]; at 1 µM) was 91%. For the same molecule, the % of control ([7]; at 5 µM) was 61%.

`CN(C(=O)c1cnn2cccnc12)c1cc2c(cc1N1CCOCC1)C(=O)N(C[C@@H](F)C(C)(C)O)C2` showed a dTM [8] of 1.1 K.

With `CC[C@@H]1[C@H](F)C(=O)N[C@@H]1COc1nccc2cc(C(N)=O)c(OC)cc12` [ZIMLOVISERTIB] the % of inhibition ([9]; at 0.01 µM) was 3.8%, the % of inhibition ([9]; at 0.04 µM) was -0.9% and the % of inhibition ([9]; at 0.2 µM) was 5%. The % of inhibition ([9]; at 1 µM) was 8.5% and the % of inhibition ([9]; at 5 µM) was 17%.

`COCC(=O)NC/C=C/c1ccc2ncnc(Nc3ccc(Oc4ccc(C)nc4)c(C)c3)c2c1` [CP-724714] was tested, and the % of control [10] was 100% and the % of control [11] was 100%.
